Results published in patent US9888679B2, “Protection of progenitor cells and regulation of their differentiation” (Proteobioactives Pty Ltd, priority 2007, dated 2018).

Tests used:
[1] = system: Human immunoselected Stro-1+ Progenitor cells; assay: Hyaluronan biosynthesis, 3H-glucosamine incorporation, Superdex-S200 before/after Hyalase, 9 day micromass; format: cell-based
Excerpt: FIG. 27. Chromatographic elution profiles showing the effects of polysulfated polysaccharides on the biosynthesis of Hyaluronan (HA) and by progenitor cells by measuring the incorporation of ^3H-glucosamine into HA. […] The % difference in areas under the profiles of the digested and pre-digested samples in the void volume fractions represents the amounts of ^3H-HA released into the media by the PPS concentration specified.
Human immunoselected Stro-1+ Progenitor cells (Mesoblast Ltd, Melbourne, Australia) were established in micromass cultures in 24 well plates using the method described above but seeding the progenitor cells at a density of 7×10^5 cells/well. After 24 hours in culture the media was changed and replaced with DMEM culture medium containing 10% FCS and 25 μg/ml gentamicin containing PPS (Bene-Arzneimittel, Munich, […]) which had been sterilised through a 0.22 μm filter. The cultures were incubated in 5% CO2/95% moist air at 37° C. for 8 days with media changes containing the indicated concentrations of PPS every 3 days. On the 8th day ^3H-glucosamine was added to culture medium containing the indicated concentrations of PPS to provide a solution containing 1.0 μCi/ml which was added to each well. The plates were incubated for a further 24 h. At termination of the cultures on day 9, media was collected into 5 ml capped tubes and stored at 4° C. prior to size exclusion chromatography as described below.
Two aliquots of 0.5 ml from each media sample were labelled A and B. 20 μl of 1 M acetic acid, pH 6.0 was added to all aliquots. 50 μl of reaction buffer (20 mM Na-acetate and 0.15 M NaCl, pH 6.0) was added to aliquot A and 50 μl of 5 TRU Streptomyces hyaluronidase (HYALASE) in reaction buffer was added to aliquot B. All samples were incubated at 60° C. for 3 h followed by boiling for 5 min to inactivate the added hyaluronidase. The samples were stored at −20° C. prior to gel filtration.
A Gel filtration column prepacked with Superdex-S200 was used to isolate and identify ^3H-HA and ^3H-PGs in culture media. Media samples were routinely centrifuged at high speed on a bench Microfuge for 10 min immediately before loading to the column. Samples (200 μl of each) were injected into the column through sample loop and the column was eluted with PBS buffer (0.15 M NaCl, 0.05 M Na2PO4, pH 7.2) at the flow rate of 0.2 ml/1 min. The column eluent was collected at 1.0 ml/fraction for total of 186 fractions and radioactivity was determined using a β-scintillation counter.

[2] = system: Murine MSC line C3H10T1/2; assay: Proteoglycan biosynthesis (35S-GAG) in 7 day pellet cultures; format: cell-based; details: 10 micrograms/mL; 7 day pellet culture; FIG. 15
Excerpt: FIG. 15. Bar graphs showing the concentration dependent effects of Pentosan Polysulfate (PPS), on the biosynthesis of Proteoglycans (PGs) as determined by the incorporation of radioactively labelled sulfate into the sulfated glycosaminoglycans (^35S-GAG) of PGs in 7 day pellet cultures of a murine progenitor cells (C3H10T1-2).
Murine Progenitor cells (cell lines C3H10T1/2 or ATDC5) purchased from RIKEN Cell Bank (Tsukuba, Japan) or human immunoselected Stro-1+ Progenitor cells (Mesoblast Ltd, Melbourne, Australia) were seeded in 2 ml screw-capped sterile centrifuge tubes and the total volume made-up to 1 ml with DMEM-High glucose medium containing 10% FBS. Progenitor cells were then centrifuged at 500 g for 10 min in a swing-out rotor at room temperature. The screw caps were loosened and the tubes placed in an incubator at 37° C., in a 5% CO2/95% air moist atmosphere. The pellets generally formed within 24 hours. Medium was changed daily in the first two days, then once every 2-3 days thereafter. […] Biosynthesis of ^35S-GAGs was determined as described for the monolayer cultures and the results expressed as ^35-S-GAGs/μg DNA.

In the case of pentosan polysulfate [PPS], the “3H-glucosamine radioactivity incorporated into HA (media)” value ([1]; PPS 0.1 micrograms/mL (profile not shown)) is reported as 35.5%, the “levels of newly synthesized 3H-HA in the culture media” value ([1]; PPS 0.1 micrograms/mL and 1.0 micrograms/mL only) is reported as “substantial increases” and the “3H-glucosamine radioactivity incorporated into HA (media)” value ([1]; PPS 1 microgram/mL, FIG. 27C) is reported as 49.6%. The “radioactivity in post digestion void volume fractions of PG monomers” value ([1]; PPS 1 microgram/mL, FIG. 27C) was 50.4%, the “3H-glucosamine incorporated into HA (media)” value ([1]; PPS 2.5 micrograms/mL) was “about 11%” and the “PPS concentration of maximum synthesis of HA” value ([1]; micromass cultures, media) was 1.0 micrograms/mL. For the same substance, the “biosynthesis of HA by cultured progenitor cells” value ([1]; micromass, FIG. 27) was “stimulates the biosynthesis of HA”, the “3H-glucosamine radioactivity found in the HA fractions (media)” value ([1]; the lower concentration of PPS (FIG. 27B)) was 15.1% and the “increase of proteoglycan synthesis, of the control values” [2] was “more than 80%”.
